Results from patent US20260092074A1, “Annelated Pyridines as Steroidogenesis Inhibitors, Preparation Method and Use Thereof” (Guangzhou Vinnocent Pharmaceutical Limited, priority 2022, published 2026).
pIC50: −log10 of the molar value.

How the values were obtained:
human CYP11B1 = biological target: T1, human CYP11B1 (Homo sapiens, UniProt P15538); experiment: Inhibition of hCYP11B1 in transfected V79 cells; assay type: cell-based; settings: hamster V79 cells expressing human CYP11B1; substrate 11-deoxycortisol 200 nM
T1 construct: expressed in transfected cells
T1 sequence (P15538 25-503): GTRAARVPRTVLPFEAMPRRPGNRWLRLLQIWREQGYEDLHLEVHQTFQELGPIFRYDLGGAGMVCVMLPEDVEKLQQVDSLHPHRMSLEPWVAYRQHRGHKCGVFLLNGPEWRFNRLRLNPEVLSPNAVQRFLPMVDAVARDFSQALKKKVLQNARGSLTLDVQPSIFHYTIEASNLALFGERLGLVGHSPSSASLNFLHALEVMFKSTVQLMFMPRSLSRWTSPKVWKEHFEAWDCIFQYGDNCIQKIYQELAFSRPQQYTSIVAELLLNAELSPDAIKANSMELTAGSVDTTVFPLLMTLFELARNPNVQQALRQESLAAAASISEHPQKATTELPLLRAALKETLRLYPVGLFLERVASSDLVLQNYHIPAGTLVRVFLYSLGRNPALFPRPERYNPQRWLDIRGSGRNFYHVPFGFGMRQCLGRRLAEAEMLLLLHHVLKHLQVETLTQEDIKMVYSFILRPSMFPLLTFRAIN
Procedure, shortened: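 V79 hamster cells stably expressing human CYP11B1 and rat NADPH-P450 reductase were preincubated with compounds for 2 h. 11-Deoxycortisol (200 nM) was then added as substrate for 30 min before ethyl acetate quench. Substrate and product were quantified by LC-MS/MS or HPLC at 260 nm, and IC50 was derived from percent inhibition.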

human CYP11B2 = biological target: T2, human CYP11B2 (Homo sapiens, UniProt P19099); experiment: Inhibition of hCYP11B2 in transfected V79 cells; assay type: cell-based; settings: hamster V79 cells expressing human CYP11B2; substrate 11-deoxycorticosterone 200 nM
T2 construct: expressed in transfected cells
T2 sequence (P19099 25-503): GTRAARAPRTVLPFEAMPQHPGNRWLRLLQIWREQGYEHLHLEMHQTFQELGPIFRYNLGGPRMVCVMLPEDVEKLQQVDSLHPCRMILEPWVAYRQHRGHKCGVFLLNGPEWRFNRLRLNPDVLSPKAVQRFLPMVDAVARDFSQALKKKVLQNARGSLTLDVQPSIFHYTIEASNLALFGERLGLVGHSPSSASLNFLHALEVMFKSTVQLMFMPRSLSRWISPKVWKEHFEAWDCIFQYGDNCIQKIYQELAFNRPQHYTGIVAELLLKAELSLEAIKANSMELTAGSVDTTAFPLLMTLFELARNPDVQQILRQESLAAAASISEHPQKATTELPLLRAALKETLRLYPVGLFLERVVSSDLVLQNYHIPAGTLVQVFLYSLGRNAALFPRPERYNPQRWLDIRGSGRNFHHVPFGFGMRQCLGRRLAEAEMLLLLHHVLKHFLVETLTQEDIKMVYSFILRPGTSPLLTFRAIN
Procedure, shortened: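 Hamster V79 cells stably co-expressing human CYP11B2 and rat NADPH-P450 reductase were pre-incubated with compounds for 2 hours, then given 200 nM 11-deoxycorticosterone for 30 minutes before ethyl acetate quench. Substrate and product were quantified by LC-MS/MS or HPLC at 260 nm, and IC50 was derived from percent inhibition.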

SMILES	pIC50 (human CYP11B1)	pIC50 (human CYP11B2)
N#CC1CN(S(=O)(=O)N2CCSc3c(-c4cc5cc(Cl)ccc5o4)cncc32)C1 [S101, 1-((8-(5-Chlorobenzofuran-2-yl)-2,3-dihydro-4H-pyrido[4,3-b][1,4]thiazin-4-yl)sulfonyl) azetidine-3-carbonitrile]	5.57	7.60
N#CN1CCN(c2cncc3c2OCCN3C(=O)C2CN(Cc3cccc(F)c3)C2)CC1 [O98, 4-(4-(1-(3-Fluorobenzyl)azetidine-3-carbonyl)-3,4-dihydro-2H-pyrido[4,3-b][1,4]oxazin-8-yl)piperazine-1-carbonitrile]	6.17	7.34
COc1ccc(CN2CC(S(=O)(=O)N3CCOc4c(-c5ccc(C#N)cc5)cncc43)C2)cc1 [O125, 4-(4-((1-(4-Methoxybenzyl)azetidin-3-yl)sulfonyl)-3,4-dihydro-2H-pyrido[4,3-b][1,4]oxazin-8-yl)benzonitrile]	7.55	9.30
COc1cccc(C(=O)N2CCOc3c(-c4ccc(C#N)cc4)cncc32)c1 [O23, 4-(4-(3-Methoxybenzoyl)-3,4-dihydro-2H-pyrido[4,3-b][1,4]oxazin-8-yl)benzonitrile]	6.29	7.53
N#Cc1ccc(-c2cncc3c2OCCN3C(=O)CCc2cccc(F)c2)cc1 [O48, 4-(4-(3-(3-Fluorophenyl)propanoyl)-3,4-dihydro-2H-pyrido[4,3-b][1,4]oxazin-8-yl)benzonitrile]	6.93	8.68
N#Cc1ccc2oc(-c3cncc4c3OCCN4)cc2c1 [O109, 2-(3,4-Dihydro-2H-pyrido[4,3-b][1,4]oxazin-8-yl)benzofuran-5-carbonitrile]	6.42	8.32
Cc1ccc(CC(=O)N2CCOc3c(-c4ccc(C#N)cc4)cncc32)cc1 [O42, 4-(4-(2-(p-Tolyl)acetyl)-3,4-dihydro-2H-pyrido[4,3-b][1,4]oxazin-8-yl)benzonitrile]	7.17	9.22
COc1cccc(S(=O)(=O)N2CC(S(=O)(=O)N3CCOc4c(-c5ccc(C#N)cc5)cncc43)C2)c1 [O119, 4-(4-((1-((3-Methoxyphenyl)sulfonyl)azetidin-3-yl)sulfonyl)-3,4-dihydro-2H-pyrido[4,3-b][1,4]oxazin-8-yl)benzonitrile]	7.42	8.38
Cn1ccc(S(=O)(=O)N2CCSc3c(-c4cc5cc(Cl)ccc5o4)cncc32)n1 [S56, 8-(5-Chlorobenzofuran-2-yl)-4-((1-methyl-1H-pyrazol-3-yl)sulfonyl)-3,4-dihydro-2H-pyrido[4,3-b][1,4]thiazine]	7.39	9.30
N#Cc1ccc(-c2cncc3c2CCN3C(=O)c2ccco2)cc1 [C44, 4-(1-(Furan-2-carbonyl)-2,3-dihydro-1H-pyrrolo[2,3-c]pyridin-4-yl)benzonitrile]	6.86	7.57
N#Cc1ccc(-c2cncc3c2OCCN3C(=O)Cc2ccc(F)cc2)cc1 [O36, 4-(4-(2-(4-Fluorophenyl)acetyl)-3,4-dihydro-2H-pyrido[4,3-b][1,4]oxazin-8-yl)benzonitrile]	6.58	8.74
N#Cc1ccc(-c2cncc3c2SCCN3C(=O)c2cccnc2)cc1 [S7, 4-(4-Nicotinoyl-3,4-dihydro-2H-pyrido[4,3-b][1,4]thiazin-8-yl)benzonitrile]	5.36	7.06
N#Cc1ccc(-c2cncc3c2OCCN3C(=O)C2CN(S(=O)(=O)c3cccc(F)c3)C2)cc1 [O61, 4-(4-(1-((3-Fluorophenyl)sulfonyl)azetidine-3-carbonyl)-3,4-dihydro-2H-pyrido[4,3-b][1,4]oxazin-8-yl)benzonitrile]	8.43	9.29
O=C(c1ccccc1F)N1CCc2c(-c3ccc4ncsc4c3)cncc21 [C58, (4-(benzo[d]thiazol-6-yl)-2,3-dihydro-1H-pyrrolo[2,3-c]pyridin-1-yl)(2-fluorophenyl)methanone]	5.58	7.12
N#CN1CCC(S(=O)(=O)N2CCSc3c(-c4cc5cc(Cl)ccc5o4)cncc32)CC1 [S63, 4-((8-(5-Chlorobenzofuran-2-yl)-2,3-dihydro-4H-pyrido[4,3-b][1,4]thiazin-4-yl)sulfonyl) piperidine-1-carbonitrile]	6.10	8.00
N#Cc1ccc(-c2cncc3c2SCCN3S(=O)(=O)c2cccc(C(F)(F)F)c2)cc1 [S16, 4-(4-((3-(Trifluoromethyl)phenyl)sulfonyl)-3,4-dihydro-2H-pyrido[4,3-b][1,4]thiazin-8-yl) benzonitrile]	7.92	8.98
Cc1cccc(S(=O)(=O)N2CCOc3c(-c4ccc(C#N)cc4)cncc32)c1 [O5, 4-(4-(m-Tolylsulfonyl)-3,4-dihydro-2H-pyrido[4,3-b][1,4]oxazin-8-yl)benzonitrile]	9.32	9.64
N#Cc1ccc(-c2cncc3c2OCCN3C(=O)C2CN(C(=O)c3ccc(F)cc3)C2)cc1 [O57, 4-(4-(1-(4-Fluorobenzoyl)azetidine-3-carbonyl)-3,4-dihydro-2H-pyrido[4,3-b][1,4]oxazin-8-yl)benzonitrile]	6.99	8.80
N#Cc1ccc2cc(-c3cncc4c3OCCN4C(=O)C3CN(Cc4cccc(F)c4)C3)[nH]c2c1 [O92, 2-(4-(1-(3-Fluorobenzyl)azetidine-3-carbonyl)-3,4-dihydro-2H-pyrido[4,3-b][1,4]oxazin-8-yl)-1H-indole-6-carbonitrile]	5.35	7.55
COc1cccc(CN2CC(S(=O)(=O)N3CCOc4c(-c5ccc(C#N)cc5)cncc43)C2)c1 [O124, 4-(4-((1-(3-Methoxybenzyl)azetidin-3-yl)sulfonyl)-3,4-dihydro-2H-pyrido[4,3-b][1,4]oxazin-8-yl)benzonitrile]	7.42	9.22
N#Cc1ccc(-c2cncc3c2CCN3C(=O)Cc2ccc(F)cc2)cc1 [C69, 4-(1-(2-(4-Fluorophenyl)acetyl)-2,3-dihydro-1H-pyrrolo[2,3-c]pyridin-4-yl)benzonitrile]	6.87	8.62
N#Cc1ccc(-c2cncc3c2SCCN3Cc2cccc([N+](=O)[O-])c2)cc1 [S3, 4-(4-(3-Nitrobenzyl)-3,4-dihydro-2H-pyrido[4,3-b][1,4]thiazin-8-yl)benzonitrile]	< 5.30	6.61
Cc1ccc(CC(=O)N2CCc3c(-c4ccc(C#N)cc4)cncc32)cc1 [C72, 4-(1-(2-(p-Tolyl)acetyl)-2,3-dihydro-1H-pyrrolo[2,3-c]pyridin-4-yl)benzonitrile]	7.29	8.17
O=C(c1ccc(F)cc1)n1ccc2c(-c3cc4ccccc4[nH]3)cncc21 [E34, (4-(1H-Indol-2-yl)-1H-pyrrolo[2,3-c]pyridin-1-yl)(4-fluorophenyl)methanone]	6.43	8.30
COc1cccc(CN2CC(S(=O)(=O)N3CCSc4c(-c5ccc(C#N)cc5)cncc43)C2)c1 [S85, 4-(4-((1-(3-Methoxybenzyl)azetidin-3-yl)sulfonyl)-3,4-dihydro-2H-pyrido[4,3-b][1,4]thiazin-8-yl)benzonitrile]	7.43	9.05
CN1CCNc2cncc(-c3ccc(C#N)cc3)c21 [N3, 4-(1-Methyl-1,2,3,4-tetrahydropyrido[3,4-b]pyrazin-8-yl)benzonitrile]	6.40	6.51
COc1ccc(C(=O)N2CC(S(=O)(=O)N3CCOc4c(-c5ccc(C#N)cc5)cncc43)C2)cc1 [O113, 4-(4-((1-(4-Methoxybenzoyl)azetidin-3-yl)sulfonyl)-3,4-dihydro-2H-pyrido[4,3-b][1,4]oxazin-8-yl)benzonitrile]	7.01	8.52
N#Cc1ccc(-c2cncc3c2SCCN3S(=O)(=O)c2cccs2)cc1 [S24, 4-(4-(Thiophen-2-ylsulfonyl)-3,4-dihydro-2H-pyrido[4,3-b][1,4]thiazin-8-yl)benzonitrile]	8.96	9.89
N#Cc1ccc(-c2cncc3c2SCCN3S(=O)(=O)c2ccc3ccccc3c2)cc1 [S23, 4-(4-(Naphthalen-2-ylsulfonyl)-3,4-dihydro-2H-pyrido[4,3-b][1,4]thiazin-8-yl)benzonitrile]	8.72	9.70
